Test system: unstimulated hHSPC
Test: lentiviral vector (LV) transduction of unstimulated HSPC, % GFP+ cells by flow cytometry
Format: cell-based, human
Conditions: for effect on transduction efficiency of quiescent HSPC: in presence of CsH, 4 h pre-exposure to single nucleoside or purine/pyrimidine mix, vs CsH only control, FIG. 3A-D; for LV transduction of unstimulated hHSPC vs DMSO control: FIG. 6D-E
Protocol: Cyclosporine H (Sigma-Aldrich) was resuspended and stored following the manufacturer's instructions. Where indicated CsH was added to the transduction medium at 8 μM concentration and washed out with the vector 16-20 hours later. dNTPs (NEB N1201AA) were added to the transduction medium where indicated at 10 uM concentration and washed out with the vector 16-20 hours later. dA (D8668), dC (D0776), dG (D0901) and dT (T1895) were all purchased from Sigma-Aldrich and resuspended and stored following the manufacturer's instructions. dNs mix, single dNs or combinations of dNs (500-1000 μM each) were added to the culture media 4 h-2 h before transduction and washed out with the vector 16-20 hours later. For dosage experiment 25 μM to 1000 μM concentrations of each dN was tested.
All cells were transduced at the indicated multiplicity of infection (MOI) as calculated by titration of vector stocks on 293T cells and expressed as transducing units (TU)/293T cell. For transduction, CB-derived HSPC were cultured in serum-free StemSpan medium supplemented with penicillin (100 IU/ml), streptomycin ([…]), 100 ng/ml recombinant human stem cell factor (rhSCF), 20 ng/ml recombinant human thrombopoietin (rhTPO), 100 ng/ml recombinant human Flt3 ligand (rhFlt3), and 20 ng/ml recombinant human IL6 (rhIL6) (all from Peprotech) 16 to 24 hours prior to transduction. Bone marrow and G-CSF mobilized peripheral blood CD34+ cells were cultured in CellGro medium (Cell Genix) supplemented with penicillin (100 IU/ml), streptomycin ([…]) and a cocktail of cytokines: 60 ng/ml IL-3, 100 ng/ml TPO, 300 ng/ml SCF, and 300 ng/ml FLT-3L (all from Cell Peprotech). HSPC were then transduced at a concentration of 1×10^6 cells per milliliter with the vector for 16 hours at the indicated multiplicity of infection (MOI), expressed as transducing units (TU)/293T cell, in the same medium. After transduction cells were washed and maintained in serum-free medium supplemented with cytokines as above until the reading of the percentage of positive cells by FACS, after which they were maintained in IMDM supplemented with 10% FBS, 25 ng/ml rhSCF, 5 ng/ml rhIL6-3, 25 ng/ml rhFlt3 and 5 ng/ml rhTPO. Unstimulated HSPC were transduced freshly isolated in StemSpan or CellGro medium supplemented with penicillin (100 IU/ml), streptomycin ([…]) for 16-24 hours and then maintained in presence of human cytokines and […] of the reverse-transcriptase inhibitor 3TC (from SIGMA) to avoid subsequent transduction due to cytokines stimulation. Unstimulated murine Lin-HSPC were transduced freshly isolated in serum-free StemSpan medium (StemCell Technologies) containing penicillin, streptomycin and glutamine at a concentration of 1×10^6 cells/ml for 16-20 hours and then maintained in presence of a combination of murine cytokines (20 ng/ml IL-3, 100 ng/ml SCF, 100 ng/ml Flt-3L, 50 ng/ml TPO all from Peprotech). MDM were transduced 7-10 days after differentiation. Activated T lymphocytes were transduced at a concentration of 10^6 cells/ml, after 3 days of stimulation with Dynabeads human T-activator CD3/CD28. Total CD14^− PBMC were transduced fresh at a concentration of 10^6 cells/ml for measurement of transduction.
GFP expression in transduced cells was measured 3-5 days post-transduction. Adherent MDM were detached by Tripsin-EDTA, washed and resuspended in PBS containing 2% fetal bovine serum (FBS). Cells grown in suspension were washed and resuspended in PBS containing 2% FBS. To measure HSPC subpopulation composition cells were harvested and incubated with anti-human receptor blocking antibodies for 15 min at 4° C. and then stained for 20 min at 4° C. with anti-human CD34 (RRID:AB_10827793), CD133 (RRID:AB_244346), CD90 (RRID:AB_559869) antibodies. […]

[1] = 7.5 μM Orotic Acid or 1 mM UMP alone, similarly to dNs alone
[2] = 7.5 μM Orotic Acid or 1 mM UMP combined with 8 μM CsH

SMILES	effect on transduction efficiency of quiescent HSPC	LV transduction of unstimulated hHSPC vs DMSO control [1]	LV transduction of unstimulated hHSPC vs DMSO control [2]
Nc1nc2c(ncn2[C@H]2C[C@H](O)[C@@H](CO)O2)c(=O)[nH]1 [dG, Deoxyguanosine]	did not observe any effect		
Nc1ncnc2c1ncn2[C@H]1C[C@H](O)[C@@H](CO)O1 [dA, Deoxyadenosine]	did not observe any effect		
O=C(O)c1cc(=O)[nH]c(=O)[nH]1 [OA, orotic acid]		increase in LV transduction	further significantly increased
O=c1ccn([C@@H]2O[C@H](COP(=O)(O)O)[C@@H](O)[C@H]2O)c(=O)[nH]1 [UMP, uridine 5′-monophosphate]		increase in LV transduction	further significantly increased
Nc1ccn([C@H]2C[C@H](O)[C@@H](CO)O2)c(=O)n1 [dC, Deoxycytidine]	gene marking levels comparable to the combination of all dNs		
